Data taken from US20110082203A1, “PROCESS TO DIAGNOSE OR TREAT BRAIN INJURY” (priority 2008, published 2011).

Assays:
[1] = system: α-II spectrin breakdown products (SBDP); settings: 5 mg/kg i.p. five minutes prior to TBI
Method: (§1) In vivo model of TBI injury model: A controlled cortical impact (CCI) device is used to model TBI on rats as previously described (Pike et al, 1998). Adult male (280-300 g) Sprague-Dawley rats (Harlan: Indianapolis, Ind.) are anesthetized with 4% isoflurane in a carrier gas of 1:1 O2/N2O (4 min.) and maintained in 2.5% isoflurane in the same carrier gas. Core body temperature is monitored continuously by a rectal thermistor probe and maintained at 37±1° C. by placing an adjustable temperature controlled heating pad beneath the rats. Animals are mounted in a stereotactic frame in a prone position and secured by ear and incisor bars. Following a midline cranial incision and reflection of the soft tissues, a unilateral (ipsilateral to site of impact) craniotomy (7 mm diameter) is performed adjacent to the central suture, midway between bregma and lambda. The dura mater is kept intact over the cortex. Brain trauma is produced by impacting the right (ipsilateral) cortex with a 5 mm diameter aluminum impactor tip (housed in a pneumatic cylinder) at a velocity of 3.5 m/s with a 1.6 mm compression and 150 ms dwell time.
Tissue and Sample Preparation: At the appropriate time points (2, 6, 24 hours and 2, 3, 5 days) after injury, animals are anesthetized and immediately sacrificed by decapitation. Brains are quickly removed, rinsed with ice cold PBS and halved. […]

[2] = Body weight loss after controlled cortical impact (CCI) TBI; type: in vivo, rat; settings: 5 mg/kg i.p. five minutes prior to TBI
Method: as §1
Subjects are administered CCI essentially as described in Example 2 and CSF is prepared as described in Example 4. […] The vehicle-treatment group receives an equal volume i.p. injection of isotonic saline. […]

[3] = system: Fluoro-Jade positive neurons; assay: Fluoro-Jade staining of degenerating neurons following CCI, counted by optical fractionator; type: in vivo, rat
Method: Fluoro-Jade is used to determine whether the presence of dicyclomine affects cell death following CCI. Experimental procedures are performed as described by Cox, C D, et al. 2008. Briefly, at 24 hours (±1 hr) following the perfusion, brains are rinsed in 0.1M PB (5 minutes×2), cryoprotected in 10% and 30% solutions of sucrose in 0.1M PB for 1 hour and 48 hours, respectively, and stored in the 30% sucrose/PB solution at −80° C. The brains are blocked and sectioned caudorostrally in 45 μm increments from Bregma—1.9 mm to Bregma—4.15 mm using a sliding microtome (American Optical Corp., model 860). The tissue sections are then mounted onto slides using distilled water and allowed to dry. For the Fluoro-Jade staining procedure (Schmued et al., 1997), the sections are rehydrated using successive 5 minute rinses in 100%, 75%, 50%, and 25% ethanol followed by 3 minutes in dH2O, placed in 0.06% KMNO4 for 15 minutes followed by 2 minutes in dH2O, and then stained in 0.0006% Fluoro-Jade B solution in 0.1% acetic acid for 30 minutes. The slides are air-dried overnight, immersed in xylene, and coverslipped with DPX.
The total number of Fluoro-Jade stained cells within the CA2/CA3 region of the dorsal hippocampus for each subject is estimated using the optical fractionator technique (West et al., 1991) with a computer-based system (Stereologer version 1.3, Systems Planning and Analysis, Inc., Alexandria, Va.). The border of the dorsal CA2/3 pyramidal cell layer within each section was outlined using a 2× objective, and the cells are then manually counted at the 40× magnification. For the cortical cell counts, a site of highly localized Fluoro-Jade positivity observed in the cortex adjacent to the site of impact serves as the ROI: the region was outlined at the 2× magnification and cells were quantified at 40× as with the hippocampal region. A numerical estimate of the total number of cells in each region of interest for each subject is calculated by the software using the equation:
Nobj=(N)(1/SSF)(1/ASF)(1/TSF)
Where N represents the sum of all objects counted for the subject, SSF the section sampling fraction, ASF the area sampling fraction, and TSF the thickness sampling fraction.

## CCN(CC)CCOC(=O)C1(C2CCCCC2)CCCCC1 [Dicyclomine, dicyclomine]
[1]
  Production of SBDPs in CSF following TBI: inhibits production of SBDPs
[2]; mean +/- spread, * p<0.01 vs saline
  % Body Weight Loss: *7.8 +/− 2.08%
[2]; p<0.01
  Percent body weight loss compared to the saline-treated group: significantly reduced
[3]; CA2/CA3 dorsal hippocampus, 24 hours post-TBI, 5 mg/kg i.p., vehicle 2982
  Mean number of Fluoro-Jade positive neurons, hippocampal ROI: 2640
[3]; cortex adjacent to impact site, 24 hours post-TBI, 5 mg/kg i.p., vehicle 84392
  Mean number of Fluoro-Jade positive neurons, cortical ROI: 84452
[3]; following TBI
  Effect on neuronal cell viability: no effect
[3]; hippocampal and cortical ROIs, dicyclomine vs vehicle
  Difference in Fluoro-Jade positive neurons between treatment groups (T-test): no significant difference
